Data as given in PubChem BioAssay (NCI).
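Each compound was tested at five concentrations against cells in 96-well plates for 48 hours. The concentration for full growth arrest is given as TGI.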

What was measured:
Experiment in all cases: inhibition of tumour cell growth, NCI panel, 48 h
786-0 renal = tested on: 786-0 renal
A549 NSCLC = tested on: A549 NSCLC
COLO 205 colon = tested on: COLO 205 colon
HOP-62 NSCLC = tested on: HOP-62 NSCLC
HS 578T breast = tested on: HS 578T breast
IGROV1 ovarian = tested on: IGROV1 ovarian
KM12 colon = tested on: KM12 colon
MCF7 breast = tested on: MCF7 breast
NCI-H23 lung = tested on: NCI-H23 lung
NCI-H460 lung = tested on: NCI-H460 lung
NCI-H522 lung = tested on: NCI-H522 lung
RXF 393 renal = tested on: RXF 393 renal
SNB-19 CNS = tested on: SNB-19 CNS
SNB-75 CNS = tested on: SNB-75 CNS
SW-620 colon = tested on: SW-620 colon
CAKI-1 renal = tested on: CAKI-1 renal
UACC-257 melanoma = tested on: UACC-257 melanoma
CCRF-CEM leukemia = tested on: CCRF-CEM leukemia
MDA-MB-435 = tested on: MDA-MB-435

SMILES	TGI (786-0 renal)	TGI (A549 NSCLC)	TGI (COLO 205 colon)	TGI (HOP-62 NSCLC)	TGI (HS 578T breast)	TGI (IGROV1 ovarian)	TGI (KM12 colon)	TGI (MCF7 breast)	TGI (NCI-H23 lung)	TGI (NCI-H460 lung)	TGI (NCI-H522 lung)	TGI (RXF 393 renal)	TGI (SNB-19 CNS)	TGI (SNB-75 CNS)	TGI (SW-620 colon)	TGI (CAKI-1 renal)	TGI (UACC-257 melanoma)	TGI (CCRF-CEM leukemia)	TGI (MDA-MB-435)
c1ccc2c(c1)nc1n2CCCn2ccnc2-1	> 100 µM	> 100 µM	> 100 µM	> 100 µM	> 100 µM	> 100 µM	> 100 µM	> 100 µM	> 100 µM	> 100 µM	> 100 µM	> 100 µM	> 100 µM	> 100 µM	> 100 µM	–	–	–	–
N#Cc1c(Cl)cccc1Oc1ccc(S(=O)(=O)/N=C(\NN)Nc2ccc(Cl)cc2)cc1	61.1 µM	> 100 µM	29.6 µM	59.6 µM	–	43.4 µM	42.7 µM	> 100 µM	65.6 µM	43.7 µM	–	47.1 µM	> 100 µM	54.7 µM	> 100 µM	> 100 µM	72.3 µM	–	–
CC(=O)N1OC(C)CC1Nc1ccc(Br)cc1 (stereo unspecified)	> 100 µM	> 100 µM	–	6.13 µM	> 100 µM	> 100 µM	> 100 µM	> 100 µM	> 100 µM	> 100 µM	–	> 100 µM	> 100 µM	–	> 100 µM	–	–	> 100 µM	> 100 µM
COc1cccc(NC(=O)/C(CC(=O)CC(c2ccccc2)c2c(O)c3ccccc3oc2=O)=N\NC(C)(C)C)c1OC (stereo unspecified)	> 100 µM	> 100 µM	> 100 µM	> 100 µM	–	> 100 µM	> 100 µM	–	–	> 100 µM	–	–	> 100 µM	> 100 µM	> 100 µM	> 100 µM	> 100 µM	> 100 µM	–
CC(=O)OCC1OC(n2c(-c3ccccc3)c(C(C)=O)c(-c3ccc(Cl)cc3)c(C#N)c2=S)C(OC(C)=O)C(OC(C)=O)C1OC(C)=O (stereo unspecified)	> 100 µM	> 100 µM	> 100 µM	> 100 µM	–	> 100 µM	> 100 µM	> 100 µM	> 100 µM	> 100 µM	> 100 µM	> 100 µM	> 100 µM	> 100 µM	> 100 µM	> 100 µM	> 100 µM	> 100 µM	> 100 µM
Oc1cc(Br)cc2cccnc12	38 µM	> 87.2 µM	34.8 µM	81.9 µM	> 100 µM	8.22 µM	> 100 µM	–	31.2 µM	17 µM	7.57 µM	30.4 µM	> 100 µM	> 91.5 µM	16.9 µM	39 µM	6.93 µM	4.61 µM	> 60 µM
COC(=O)c1sc2ncc3c(c2c1N)CCCCCC3	> 100 µM	> 100 µM	> 100 µM	> 100 µM	–	> 100 µM	> 100 µM	> 100 µM	> 100 µM	> 100 µM	> 100 µM	> 100 µM	> 100 µM	> 100 µM	> 100 µM	> 100 µM	> 100 µM	> 100 µM	> 100 µM
CC(=O)O[C@H]1C(=O)[C@@]2(C)[C@H]([C@H](OC(=O)c3cccc(C(F)(F)F)c3)[C@]3(O)C[C@H](OC(=O)[C@H](O)[C@@H](NC(=O)c4ccccc4)c4ccccc4)C(C)=C1C3(C)C)[C@]1(OC(C)=O)CO[C@@H]1C[C@@H]2O	4.49 µM	> 25 µM	3.27 µM	> 14.2 µM	0.0653 µM	> 23 µM	24.8 µM	–	> 25 µM	> 10.6 µM	0.0175 µM	0.809 µM	> 25 µM	–	> 16.4 µM	> 25 µM	8.27 µM	0.368 µM	< 0.0025 µM
CS/C1=C(\c2ccc(C)cc2)N(c2ccccc2)C(=O)C(=O)N(c2ccccc2)/C(c2ccc(C)cc2)=C(/SC)SS1	> 100 µM	–	> 100 µM	> 100 µM	–	> 100 µM	–	> 100 µM	> 100 µM	> 100 µM	> 100 µM	–	> 100 µM	> 100 µM	> 100 µM	> 100 µM	> 100 µM	> 100 µM	> 100 µM
COC(=O)C1(c2cc3ccccc3n2S(=O)(=O)c2ccccc2)CC2C=CC1NC2 (stereo unspecified)	2.9 µM	10.9 µM	4.61 µM	3.92 µM	> 25.9 µM	3.22 µM	8.29 µM	3.06 µM	6.85 µM	> 29.6 µM	–	3.5 µM	5.98 µM	17.9 µM	> 21.7 µM	4.27 µM	4.93 µM	–	3.86 µM
O/C(=C\c1nc2ccccc2nc1/C=C(\O)c1ccc(Cl)cc1)c1ccccc1	> 100 µM	> 100 µM	> 100 µM	> 100 µM	–	> 100 µM	> 100 µM	> 100 µM	> 100 µM	> 100 µM	> 100 µM	> 100 µM	> 100 µM	72.8 µM	> 100 µM	65.4 µM	> 100 µM	> 100 µM	> 100 µM
Cc1ccc2ccccc2c1NC1=NCCO1	> 100 µM	> 100 µM	> 100 µM	> 100 µM	> 100 µM	> 100 µM	> 100 µM	> 100 µM	> 100 µM	> 100 µM	–	> 100 µM	> 100 µM	> 100 µM	> 100 µM	–	> 100 µM	> 100 µM	> 100 µM
O=C(COc1ccc(OCC(=O)N2C(=O)CSC2=Nc2ccccc2)cc1)N1C(=O)CSC1=Nc1ccccc1	63.2 µM	> 100 µM	96.2 µM	–	–	82.8 µM	44.3 µM	> 100 µM	> 100 µM	> 100 µM	42.1 µM	> 100 µM	> 100 µM	> 100 µM	> 100 µM	47.7 µM	> 100 µM	–	> 100 µM
COc1ccc2nc3ccc(OC)cc3c(SCc3ccc([N+](=O)[O-])cc3)c2c1	> 100 µM	> 100 µM	> 100 µM	> 100 µM	–	> 100 µM	> 100 µM	–	> 100 µM	> 100 µM	> 100 µM	> 100 µM	> 100 µM	> 100 µM	> 100 µM	> 100 µM	> 100 µM	> 100 µM	> 100 µM
C=C(C)C1Cc2c(cc(O)c3c(=O)c4c(oc23)C(O)Oc2cc(OC)c(OC)cc2-4)O1 (stereo unspecified)	> 10 µM	> 10 µM	> 10 µM	> 10 µM	–	> 10 µM	> 10 µM	> 10 µM	> 10 µM	> 10 µM	–	> 10 µM	> 10 µM	–	> 10 µM	> 10 µM	> 10 µM	> 10 µM	> 10 µM
FC(F)(Sc1ccccn1)c1nc2ccccc2o1	> 100 µM	> 100 µM	> 100 µM	> 100 µM	–	> 100 µM	> 100 µM	> 100 µM	> 100 µM	> 100 µM	> 100 µM	> 100 µM	–	–	> 100 µM	> 100 µM	> 100 µM	> 100 µM	> 100 µM
N=C(N)N1CCC(N2CCOCC2)CC1	> 100 µM	> 100 µM	> 100 µM	> 100 µM	> 100 µM	> 100 µM	> 100 µM	> 100 µM	> 100 µM	> 100 µM	–	> 100 µM	> 100 µM	> 100 µM	> 100 µM	–	> 100 µM	> 100 µM	> 100 µM
O=C1c2ccccc2NC(=O)C2C1C(c1ccccc1)CC2(O)c1ccccc1 (stereo unspecified)	> 100 µM	> 100 µM	36.9 µM	> 100 µM	98.3 µM	> 100 µM	> 100 µM	> 100 µM	> 100 µM	> 100 µM	–	> 100 µM	> 100 µM	0.0677 µM	> 100 µM	> 100 µM	> 100 µM	> 100 µM	> 100 µM
CC(C)(C)c1cc(C(C)(C)C)c(SS(=O)(=O)O)c(O)c1O	> 100 µM	> 100 µM	> 100 µM	> 100 µM	–	> 100 µM	> 100 µM	> 100 µM	> 100 µM	> 100 µM	–	97.9 µM	> 100 µM	99.1 µM	> 100 µM	> 100 µM	> 100 µM	> 100 µM	> 100 µM
O=C1SS(=O)c2ccccc21 (stereo unspecified)	> 100 µM	> 100 µM	> 100 µM	> 100 µM	–	> 100 µM	> 100 µM	> 100 µM	> 100 µM	> 100 µM	> 100 µM	–	> 100 µM	> 100 µM	> 100 µM	> 100 µM	> 100 µM	> 100 µM	> 100 µM
COc1ccc(C(=O)Cn2c(C(=O)/C=C/c3ccco3)nc3ccccc32)cc1	> 100 µM	> 100 µM	71.8 µM	> 100 µM	63.8 µM	> 100 µM	> 100 µM	> 100 µM	> 100 µM	> 100 µM	–	> 100 µM	> 100 µM	> 100 µM	> 100 µM	–	> 100 µM	> 100 µM	> 100 µM
